These results are taken from patent publication US20110230493A1, “1-OXA-8-Azaspiro [4,5] Decabe-8-Carboxamide Compounds as FAAH Inhibitors” (Pfizer Inc., priority 2008, published 2011).

One test deals with T1, human FAAH (Homo sapiens, UniProt O00519).
T1 construct: made in house; host or cells: E. coli
T1 sequence (O00519 1-579): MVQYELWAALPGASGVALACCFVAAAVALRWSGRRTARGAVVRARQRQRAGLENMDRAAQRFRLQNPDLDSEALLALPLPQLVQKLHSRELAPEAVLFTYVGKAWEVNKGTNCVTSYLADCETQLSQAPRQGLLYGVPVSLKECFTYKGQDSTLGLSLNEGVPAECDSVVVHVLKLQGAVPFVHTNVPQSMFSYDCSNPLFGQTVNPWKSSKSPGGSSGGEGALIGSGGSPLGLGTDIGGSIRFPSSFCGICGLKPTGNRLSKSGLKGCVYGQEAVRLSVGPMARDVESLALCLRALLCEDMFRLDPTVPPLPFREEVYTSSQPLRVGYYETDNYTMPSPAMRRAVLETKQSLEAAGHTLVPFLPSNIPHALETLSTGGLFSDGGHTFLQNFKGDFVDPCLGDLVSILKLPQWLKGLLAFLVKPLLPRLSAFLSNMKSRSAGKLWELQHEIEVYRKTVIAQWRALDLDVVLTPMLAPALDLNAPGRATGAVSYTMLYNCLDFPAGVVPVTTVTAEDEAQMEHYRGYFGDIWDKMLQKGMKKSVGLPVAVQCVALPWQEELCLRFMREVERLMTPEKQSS
Kind of test: FAAH assay, human FAAH enzyme inactivation (kinact/Ki). Format: biochemical. Conditions: pH 7.4, in vitro, oleamide 50 μM, 30° C., read-out: hFAAH kinact/Ki. The gist of the method:
(§1)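 Oleamide hydrolysis by 1-4 nM purified E. coli-expressed FAAH (substrate 50 μM = Km) coupled to GDH/NADH, pH 7.4 phosphate, 7.5% DMSO and EtOH, 30° C; A340 followed 90 min. kobs from mono-exponential fits; kinact/Ki from kobs-versus-concentration slope, multiplied by two.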

The target of a further test is T2, rat FAAH (Rattus norvegicus, UniProt P97612).
T2 construct: made in house; host or cells: E. coli
T2 sequence (P97612 1-579): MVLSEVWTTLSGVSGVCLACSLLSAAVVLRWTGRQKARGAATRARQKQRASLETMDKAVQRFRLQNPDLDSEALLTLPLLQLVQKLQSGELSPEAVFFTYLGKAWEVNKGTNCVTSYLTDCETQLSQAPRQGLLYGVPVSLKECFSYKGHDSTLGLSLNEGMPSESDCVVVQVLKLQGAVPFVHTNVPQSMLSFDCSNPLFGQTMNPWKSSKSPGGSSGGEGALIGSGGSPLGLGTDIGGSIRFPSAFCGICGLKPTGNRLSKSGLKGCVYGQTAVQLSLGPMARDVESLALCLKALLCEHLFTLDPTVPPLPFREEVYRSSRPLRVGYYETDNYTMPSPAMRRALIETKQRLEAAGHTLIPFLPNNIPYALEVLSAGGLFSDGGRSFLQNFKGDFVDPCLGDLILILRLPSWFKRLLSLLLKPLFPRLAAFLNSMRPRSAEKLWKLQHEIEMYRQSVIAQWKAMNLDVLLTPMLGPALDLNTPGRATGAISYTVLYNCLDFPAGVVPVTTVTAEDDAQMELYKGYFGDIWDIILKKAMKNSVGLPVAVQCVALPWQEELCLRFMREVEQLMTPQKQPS
Kind of test: FAAH assay, rat FAAH enzyme inactivation (kinact/Ki). The note with it: pH 7.4, in vitro, oleamide 50 μM, 30° C., read-out: rFAAH kinact/Ki. Format: biochemical. The gist of the method: as §1

A further test has as its system Male Sprague-Dawley Rats. Kind of test: In vivo Complete Freund's Adjuvant (CFA) efficacy assay, inhibition of allodynia. Conditions: 3 mpk, oral dosing; PWT four hours postdose; p < 0.05 vs vehicle group. Also noted: species or system rat; key: (+) indicates the test compound was determined to be efficacious at 3 mpk, oral dosing; (−) indicates the test compound was determined to not be efficacious at 3 mpk, oral dosing. Here is the method:
For additional information on the CFA efficacy assay, see Jayamanne et al., Brit. J. Pharmacol. 2006, 147, 281-288. Experiments were performed on adult Male Sprague-Dawley Rats (200 g-250 g). Inflammation was induced in the left hindpaw of the rat by an intra-plantar injection of 150 uL Complete Freund's Adjuvant (CFA) (SIGMA F5881). The CFA injection immediately induces local inflammation, paw swelling, and pain that persists for at least two weeks post-injection. Baseline paw withdrawal threshold (PWT) was measured to determine the percent inhibition of allodynia using a set of Von Frey Hairs on day 4 post injection as illustrated by the Dixon Up and Down Method (W. J. Dixon, Ann. Rev. Pharmacol. Toxicol. 1980, 20:441-462). […] Following Dose administration PWT threshold was evaluated again at four hours postdose. The Sprague-Dawley rats used in this assay were purchased from Harlan, 8520 Allison Pointe Blvd., Indianapolis, Ind., 46250, U.S.A. Sprague-Dawley rats are an outbred breed of albino rats first produced by the Sprague Dawley farms in Madison, Wis., U.S.A.
Percent Inhibition of Allodynia was determined by the formula: […]
ΔPWT measurements were averaged for each treatment group and statistical comparisons between groups were made using ANOVA and Dunnett's two-tailed test. […]

Structures are written as SMILES.

As to `O=C(Nc1cccnn1)N1CCC2(CC1)C[C@@H](c1cccc(Oc3ccc(Br)cn3)c1)CO2` [Example 10, (3S)-3-{3-[(5-bromopyridin-2-yl)oxy]phenyl}-N-pyridazin-3-yl-1-oxa-8-azaspiro[4.5]decane-8-carboxamide], the kinact/KI was 2690 M⁻¹ s⁻¹ at human FAAH and 5890 M⁻¹ s⁻¹ on rat FAAH. Moreover, the “CFA Efficacy” value in the test with Male Sprague-Dawley Rats is listed as “(+)”.

For the molecule `O=C(Nc1cccnn1)N1CCC2(CC1)C[C@H](c1cccc(Oc3ccc(Cl)cn3)c1)CO2` [Example 11, (3R)-3-{3-[(5-chloropyridin-2-yl)oxy]phenyl}-N-pyridazin-3-yl-1-oxa-8-azaspiro[4.5]decane-8-carboxamide], the kinact/KI was 2420 M⁻¹ s⁻¹ on human FAAH and 1020 M⁻¹ s⁻¹ at rat FAAH. Moreover, the “CFA Efficacy” value in the test on Male Sprague-Dawley Rats was “(+)”.

In the case of `O=C(Nc1cccnn1)N1CCC2(CC1)C[C@@H](c1cccc(Oc3ccc(Cl)cn3)c1)CO2` [Example 12, (3S)-3-{3-[(5-chloropyridin-2-yl)oxy]phenyl}-N-pyridazin-3-yl-1-oxa-8-azaspiro[4.5]decane-8-carboxamide], the figures for the kinact/KI at human FAAH and at rat FAAH were 2190 M⁻¹ s⁻¹ and 2270 M⁻¹ s⁻¹, respectively. The “CFA Efficacy” value in the test on Male Sprague-Dawley Rats is reported as “(+)”.

`Cc1noc(NC(=O)N2CCC3(CC2)C[C@H](c2ccc(OCc4ccc(F)cc4)cc2)CO3)c1C` [Example 41, (3R)—N-(3,4-dimethylisoxazol-5-yl)-3-{4-[(4-fluorobenzyl)oxy]phenyl}-1-oxa-8-azaspiro[4.5]decane-8-carboxamide]: the kinact/KI on human FAAH amounted to 12500 M⁻¹ s⁻¹; at rat FAAH, 15800 M⁻¹ s⁻¹. Also, the “CFA Efficacy” value in the test on Male Sprague-Dawley Rats is recorded as “(+)”.

Turning to `Cc1noc(NC(=O)N2CCC3(CC2)C[C@@H](c2ccc(OCc4ccc(F)cc4)cc2)CO3)c1C` [Example 42, (3S)—N-(3,4-dimethylisoxazol-5-yl)-3-{4-[(4-fluorobenzyl)oxy]phenyl}-1-oxa-8-azaspiro[4.5]decane-8-carboxamide], the results for the kinact/KI at human FAAH and on rat FAAH were 5590 M⁻¹ s⁻¹ and 5320 M⁻¹ s⁻¹, respectively. In addition, in the test on Male Sprague-Dawley Rats, the “CFA Efficacy” value was “(+)”.

Take `Cc1noc(NC(=O)N2CCC3(CC2)C[C@H](c2ccc(OCc4cccc(F)c4)cc2)CO3)c1C` [Example 47, (3R)—N-(3,4-dimethylisoxazol-5-yl)-3-{4-[(3-fluorobenzyl)oxy]phenyl}-1-oxa-8-azaspiro[4.5]decane-8-carboxamide]: the kinact/KI on human FAAH is 9350 M⁻¹ s⁻¹; at rat FAAH, 6260 M⁻¹ s⁻¹. In the test on Male Sprague-Dawley Rats, the “CFA Efficacy” value is listed as “(+)”.

Regarding `Cc1noc(NC(=O)N2CCC3(CC2)C[C@@H](c2ccc(OCc4cccc(F)c4)cc2)CO3)c1C` [Example 48, (3S)—N-(3,4-dimethylisoxazol-5-yl)-3-{4-[(3-fluorobenzyl)oxy]phenyl}-1-oxa-8-azaspiro[4.5]decane-8-carboxamide], the values for the kinact/KI at human FAAH and at rat FAAH were 4470 M⁻¹ s⁻¹ and 2540 M⁻¹ s⁻¹, respectively. Also, in the test on Male Sprague-Dawley Rats, the “CFA Efficacy” value is reported as “(+)”.

Take `Cc1noc(NC(=O)N2CCC3(CC2)C[C@H](c2ccc(OCc4ccc(Cl)cc4)cc2)CO3)c1C` [Example 49, (3R)-3-{4-[(4-chlorobenzyl)oxy]phenyl}-N-(3,4-dimethylisoxazol-5-yl)-1-oxa-8-azaspiro[4.5]decane-8-carboxamide]: the figures for the kinact/KI on human FAAH and at rat FAAH were 16800 M⁻¹ s⁻¹ and 21900 M⁻¹ s⁻¹, respectively. The “CFA Efficacy” value in the test with Male Sprague-Dawley Rats is given as “(−)”.

Turning to `Cc1noc(NC(=O)N2CCC3(CC2)C[C@@H](c2ccc(OCc4ccc(Cl)cc4)cc2)CO3)c1C` [Example 50, (3S)-3-{4-[(4-chlorobenzyl)oxy]phenyl}-N-(3,4-dimethylisoxazol-5-yl)-1-oxa-8-azaspiro[4.5]decane-8-carboxamide], the kinact/KI came out at 7470 M⁻¹ s⁻¹ on human FAAH and 9110 M⁻¹ s⁻¹ on rat FAAH. In addition, the “CFA Efficacy” value with Male Sprague-Dawley Rats was “(−)”.

On to `Cc1noc(NC(=O)N2CCC3(CC2)C[C@H](c2ccc(OCc4ccc(F)c(F)c4)cc2)CO3)c1C` [Example 51, (3R)-3-{4-[(3,4-difluorobenzyl)oxy]phenyl}-N-(3,4-dimethylisoxazol-5-yl)-1-oxa-8-azaspiro[4.5]decane-8-carboxamide], for which the kinact/KI on human FAAH amounted to 16700 M⁻¹ s⁻¹; at rat FAAH, 17300 M⁻¹ s⁻¹. Also, in the test on Male Sprague-Dawley Rats, the “CFA Efficacy” value is given as “(+)”.
